What was measured:
Type in all cases: in vivo
Kochia (Kochia scoparia) [1] = experiment: Test A preemergence
Outline: (§1)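 Preemergence soil spray on seeded pots or post-emergence spray on 1–2 leaf plants, in loam–sand blend. Greenhouse ~10 d. Visual rating 0–100 against untreated plants.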

[2] = system: barnyardgrass (Echinochloa crus-galli); experiment: Test A preemergence
Outline: as §1

[3] = system: giant foxtail (Setaria faberii); experiment: Test A preemergence
Outline: as §1

[4] = system: pigweed (Amaranthus retroflexus); experiment: Test A preemergence; settings: preemergence
[5] = system: ragweed (common ragweed, Ambrosia elatior); experiment: Test A preemergence; settings: preemergence
Outline: as §1

[6] = system: ryegrass, Italian (Italian ryegrass, Lolium multiflorum); experiment: Test A preemergence; settings: preemergence
Outline: as §1

[7] = system: Galium (catchweed bedstraw, Galium aparine); experiment: Test A postemergence; settings: postemergence, 0 to 100 scale (0 no effect, 100 complete control)
Outline: as §1

Kochia (Kochia scoparia) [8] = experiment: Test A postemergence; settings: postemergence, 0 to 100 scale (0 no effect, 100 complete control)
Outline: as §1

[9] = system: barnyardgrass (Echinochloa crus-galli); experiment: Test A postemergence; settings: postemergence, 0 to 100 scale (0 no effect, 100 complete control)
Outline: as §1

[10] = system: blackgrass (Alopecurus myosuroides); experiment: Test A postemergence; settings: postemergence, 0 to 100 scale (0 no effect, 100 complete control)
Outline: as §1

corn (Zea mays) = experiment: Test A postemergence; settings: postemergence, 0 to 100 scale (0 no effect, 100 complete control)
Outline: as §1

[11] = system: giant foxtail (Setaria faberii); experiment: Test A postemergence; settings: postemergence, 0 to 100 scale (0 no effect, 100 complete control)
Outline: as §1

[12] = system: pigweed (Amaranthus retroflexus); experiment: Test A postemergence; settings: postemergence, 0 to 100 scale (0 no effect, 100 complete control)
Outline: as §1

[13] = system: ragweed (common ragweed, Ambrosia elatior); experiment: Test A postemergence; settings: postemergence, 0 to 100 scale (0 no effect, 100 complete control)
Outline: as §1

[14] = system: ryegrass, Italian (Italian ryegrass, Lolium multiflorum); experiment: Test A postemergence; settings: postemergence, 0 to 100 scale (0 no effect, 100 complete control)
Outline: as §1

[15] = system: wheat (Triticum aestivum); experiment: Test A postemergence; settings: postemergence, 0 to 100 scale (0 no effect, 100 complete control)
Outline: as §1

[16] = system: barnyardgrass (Echinochloa crus-galli); experiment: Test B flooded paddy test; settings: Flood, 0 to 100 scale where 0 is no effect and 100 is complete control, 13 to 15 d
Outline: (§2)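 Visual ratings (0 none to 100 complete control) are relative to untreated plants, taken 13–15 d after treatment in a greenhouse. Test material went straight into floodwater standing 3 cm above the soil, kept constant, on plants at the 2-leaf stage.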

[17] = system: ducksalad (Heteranthera limosa); experiment: Test B flooded paddy test; settings: Flood, 0 to 100 scale where 0 is no effect and 100 is complete control, 13 to 15 d
Outline: as §2

rice (Oryra sativa) = experiment: Test B flooded paddy test; settings: Flood, 0 to 100 scale where 0 is no effect and 100 is complete control, 13 to 15 d
Outline: as §2

[18] = system: sedge, umbrella (small-flower umbrella sedge, Cyperus difformis); experiment: Test B flooded paddy test; settings: Flood, 0 to 100 scale where 0 is no effect and 100 is complete control, 13 to 15 d
Outline: as §2

[19] = 125 g ai/ha, Preemergence, visual injury after approximately 10 d, 0 to 100 scale where 0 is no effect and 100 is complete control
[20] = 500 g ai/ha, preemergence, 0 to 100 scale, 0 = no effect, 100 = complete control
[21] = 125 g ai/ha, visual rating after approx. 10 d, 0 to 100 scale where 0 is no effect and 100 is complete control
[22] = 500 g ai/ha, 0 to 100 scale, 0 = no effect, 100 = complete control
[23] = 125 g ai/ha, visual injury after approximately 10 d
[24] = 500 g ai/ha, visual injury, approx. 10 d
[25] = 125 g ai/ha, visual rating after approx. 10 d
[26] = 125 g ai/ha, preemergence, visual rating after approx. 10 d, 0 to 100 scale where 0 is no effect and 100 is complete control

Row | Structure (SMILES) | Plant response rating, Kochia (Kochia (Kochia scoparia) [1]; [20]) | Plant response rating, Barnyardgrass [2, 20] | Plant response rating, Foxtail, Giant [3, 20] | Plant response rating, Pigweed [4, 21] | Plant response rating, Pigweed [4, 22] | Plant response rating, Ragweed [5, 21] | Plant response rating, Ragweed [5, 22] | Plant response rating, Ryegrass, Italian [6, 21] | Plant response rating, Ryegrass, Italian [6, 22] | Plant response rating, Galium [7, 23] | Plant response rating, Galium [7, 24] | Plant response rating, Kochia (Kochia (Kochia scoparia) [8]; [23]) | Plant response rating, Kochia (Kochia (Kochia scoparia) [8]; [24]) | Plant response rating, Barnyardgrass [9, 24] | Plant response rating, Blackgrass [10, 24] | Plant response rating, Corn (corn (Zea mays); [23]) | Plant response rating, Corn (corn (Zea mays); [24]) | Plant response rating, Foxtail, Giant [11, 23] | Plant response rating, Foxtail, Giant [11, 24] | Plant response rating, Pigweed [12, 23] | also measured
1 | O=C1NCC(c2cccc(Br)c2)C1C(=O)Nc1cccc(F)c1F (racemic) [Compound 688] | 50 | 90 | 90 | 30 | 40 | 20 | 40 | 0 | 20 | 40 | 50 | 40 | 60 | 90 | 60 | 40 | 70 | 90 | 90 | 30 | Plant response rating, Kochia (Kochia (Kochia scoparia) [1]; [19]): 30; Plant response rating, Barnyardgrass [2, 19]: 90; Plant response rating, Foxtail, Giant [3, 19]: 90; Plant response rating, Barnyardgrass [9, 25]: 90; Plant response rating, Blackgrass [10, 25]: 50; Plant response rating, Pigweed [12, 24]: 50; Plant response rating, Ragweed [13, 23]: 30; Plant response rating, Ragweed [13, 24]: 50; Plant response rating, Ryegrass, Italian [14, 23]: 40; Plant response rating, Ryegrass, Italian [14, 24]: 60; Plant response rating, Wheat [15, 23]: 20; Plant response rating, Wheat [15, 24]: 70; Plant response rating, Barnyardgrass ([16]; 250 g ai/ha): 35; Plant response rating, Ducksalad ([17]; 250 g ai/ha): 100; Plant response rating, Rice (rice (Oryra sativa); 250 g ai/ha): 0; Plant response rating, Sedge, Umbrella ([18]; 250 g ai/ha): 0
2 | O=C1NCC(c2cccc(OC(F)(F)C(F)F)c2)C1C(=O)Nc1ccccc1Cl (racemic) [Compound 699] | 70 | 90 | 90 | 30 | 50 | 0 | 70 | 20 | 40 | 50 | 60 | 30 | 50 | 80 | 60 | 30 | 60 | 50 | 80 | 20 | Plant response rating, Kochia (Kochia (Kochia scoparia) [1]; [26]): 0; Plant response rating, Barnyardgrass [2, 26]: 90; Plant response rating, Foxtail, Giant [3, 26]: 90; Plant response rating, Barnyardgrass [9, 23]: 50; Plant response rating, Blackgrass [10, 23]: 30; Plant response rating, Pigweed [12, 24]: 20; Plant response rating, Ragweed [13, 23]: 0; Plant response rating, Ragweed [13, 24]: 30; Plant response rating, Ryegrass, Italian [14, 23]: 0; Plant response rating, Ryegrass, Italian [14, 24]: 30; Plant response rating, Wheat [15, 23]: 0; Plant response rating, Wheat [15, 24]: 20; Plant response rating, Barnyardgrass ([16]; 500 g ai/ha): 60; Plant response rating, Ducksalad ([17]; 500 g ai/ha): 90; Plant response rating, Rice (rice (Oryra sativa); 500 g ai/ha): 0; Plant response rating, Sedge, Umbrella ([18]; 500 g ai/ha): 0
3 | O=C1NCC(c2ccc(I)cc2)C1C(=O)Nc1ccc(F)cc1F (racemic) [Compound 701] | 0 | 90 | 90 | 0 | 0 | 0 | 0 | 0 | 0 | 0 | 0 | 0 | 0 | 70 | 0 | 0 | 0 | 60 | 70 | 0 | Plant response rating, Kochia (Kochia (Kochia scoparia) [1]; [26]): 0; Plant response rating, Barnyardgrass [2, 26]: 60; Plant response rating, Foxtail, Giant [3, 26]: 90; Plant response rating, Barnyardgrass [9, 23]: 60; Plant response rating, Blackgrass [10, 23]: 0; Plant response rating, Pigweed [12, 24]: 0; Plant response rating, Ragweed [13, 23]: 0; Plant response rating, Ragweed [13, 24]: 0; Plant response rating, Ryegrass, Italian [14, 23]: 0; Plant response rating, Ryegrass, Italian [14, 24]: 0; Plant response rating, Wheat [15, 23]: 0; Plant response rating, Wheat [15, 24]: 0; Plant response rating, Barnyardgrass ([16]; 500 g ai/ha): 65; Plant response rating, Ducksalad ([17]; 500 g ai/ha): 100; Plant response rating, Rice (rice (Oryra sativa); 500 g ai/ha): 0; Plant response rating, Sedge, Umbrella ([18]; 500 g ai/ha): 0
4 | CC(=O)c1ccccc1NC(=O)C1C(=O)NCC1c1cccc(C(F)(F)F)c1 (racemic) [Compound 706] | 0 | 70 | 80 | 0 | 0 | 0 | 0 | 0 | 0 | 0 | 0 | 0 | 0 | 50 | 0 | 0 | 0 | 0 | 30 | 0 | Plant response rating, Kochia (Kochia (Kochia scoparia) [1]; [26]): 0; Plant response rating, Barnyardgrass [2, 26]: 0; Plant response rating, Foxtail, Giant [3, 26]: 0; Plant response rating, Barnyardgrass [9, 23]: 0; Plant response rating, Blackgrass [10, 23]: 0; Plant response rating, Pigweed [12, 24]: 0; Plant response rating, Ragweed [13, 23]: 0; Plant response rating, Ragweed [13, 24]: 0; Plant response rating, Ryegrass, Italian [14, 23]: 0; Plant response rating, Ryegrass, Italian [14, 24]: 0; Plant response rating, Wheat [15, 23]: 0; Plant response rating, Wheat [15, 24]: 0; Plant response rating, Barnyardgrass ([16]; 500 g ai/ha): 0; Plant response rating, Ducksalad ([17]; 500 g ai/ha): 0; Plant response rating, Rice (rice (Oryra sativa); 500 g ai/ha): 15; Plant response rating, Sedge, Umbrella ([18]; 500 g ai/ha): 0

Source: patent US12077503B2, “Substituted cyclic amides and their use as herbicides” (FMC CORPORATION, priority 2015, dated 2024)
